From US20110190272A1, “CHEMICAL COMPOUNDS” (ASTRAZENECA AB, priority 2008, published 2011)

Each compound was assayed against T1, CSF-1R (Homo sapiens, UniProt P07333) (assay: Assay 2: CSF1R In-Vitro AlphaScreen Assay). Details: purified His-tagged kinase domain of CSF-1R, 12 mM ATP in mix.
T1 construct: The His-tagged kinase domain of CSF-1R (i.e., amino acids 568-912, GeneBank ID NM_005211); His; made in house; host or cells: baculovirus infected SF+Express insect cells
T1 sequence (P07333 568-912): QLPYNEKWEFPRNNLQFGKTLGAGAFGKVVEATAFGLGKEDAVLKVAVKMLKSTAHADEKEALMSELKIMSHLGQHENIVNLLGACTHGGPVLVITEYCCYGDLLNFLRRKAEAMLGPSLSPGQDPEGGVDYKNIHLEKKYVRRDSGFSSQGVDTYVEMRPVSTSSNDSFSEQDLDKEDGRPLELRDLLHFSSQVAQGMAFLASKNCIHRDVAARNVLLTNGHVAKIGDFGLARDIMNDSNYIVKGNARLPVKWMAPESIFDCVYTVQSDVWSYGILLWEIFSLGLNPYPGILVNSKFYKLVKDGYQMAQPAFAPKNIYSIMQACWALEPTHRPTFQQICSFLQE
Assay type: biochemical
Method: Assay 2: CSF1R In-Vitro AlphaScreen Assay
Activity of purified CSF-1R was determined in-vitro using an Amplified Luminescent Proximity Homogeneous Assay (ALPHA) (Perkin Elmer, Mass.), which measures phosphorylation of CSF-1R substrate, biotinylated […] peptide (pEY-HTRF CisBio 61GT0BLD), as described below. The His-tagged kinase domain of CSF-1R (i.e., amino acids 568-912, GeneBank ID NM_005211) was purified from baculovirus infected SF+Express insect cells (1.4×10^6 cells/ml), French pressed and chromatographed through subsequent QIAgen Ni-NTA, Superflow Mono Q HR 10/10, and Superdex 200 SEC columns.
The phosphorylation of the CSF-1R substrate in the presence and absence of the compound of interest was determined. Briefly, 5 ul of Enzyme/Substrate/adenosine triphosphate (ATP) mix consisting of 0.46 nM of purified CSF-1R, 12 nM pEY substrate, and 12 mM ATP in 1.2× buffer was preincubated with 2 ul of compound for 20 minutes at 25° C. Reactions were initiated with 5 ul of Metal mix consisting of 24 mM MgCl2 in 1.2× buffer and incubated at 25° C. for 90 minutes and reactions were stopped by addition of 5 ul of Detection mix consisting of 20 mM HEPES, 102 mM ethylenediamine tetraacetic acid, 1.65 mg/ml BSA, 136 mM NaCl, 40 ug/ml Streptavidin donor beads (Perkin Elmer, Mass., Catalog #6760002), and 40 ug/ml phosphotyrosine-specific antibody coated acceptor beads (Perkin Elmer, Mass., Catalog #6760620). Plates were incubated at 25° C. for 18 hours in the dark. Phosphorylated substrate was detected by an EnVision plate reader (Perkin Elmer) 680 nm excitation, 520-620 nm emission. Data was graphed and IC50s calculated using Excel Fit (Microsoft).

Row | IC50 [nM] | SMILES
1 | 39 | COc1cc2nnc(C(N)=O)c(Nc3ccc(C)cc3F)c2cc1C1CCN(CC(F)F)CC1 [Example 71, 6-[1-(2,2-Difluoroethyl)piperidin-4-yl]-4-[(2-fluoro-4-methylphenyl)amino]-7-methoxycinnoline-3-carboxamide]
2 | 4 | COc1cc2nnc(C(N)=O)c(Nc3ccc(C)cc3F)c2cc1N1CCN(C(CO)CO)CC1 [Example 66, 4-[(2-Fluoro-4-methylphenyl)amino]-6-{4-[2-hydroxy-1-(hydroxymethyl)ethyl]piperazin-1-yl}-7-methoxycinnoline-3-carboxamide]
3 | 52 | COc1cc2nnc(C(N)=O)c(Nc3ccc(C)cc3F)c2cc1N1C[C@@H](C)N(C(C)=O)[C@@H](C)C1 [Example 72, 6-[(3R,55)-4-Acetyl-3,5-dimethylpiperazin-1-yl]-4-[(2-fluoro-4-methylphenyl)amino]-7-methoxycinnoline-3-carboxamide]
4 | 6 | COc1cc2nnc(C(N)=O)c(Nc3ccc(C)cc3F)c2cc1N1CCN(CCS(C)(=O)=O)CC1 [Example 65, 4-[(2-Fluoro-4-methylphenyl)amino]-7-methoxy-6-{4-[2-(methylsulfonyl)ethyl]piperazin-1-yl}cinnoline-3-carboxamide]
5 | 3 | Cc1ccc(Nc2c(C(N)=O)nnc3cc(N4CCN(C)CC4)ccc23)c(F)c1 [Example 55, 4-[(2-Fluoro-4-methylphenyl)amino]-7-(4-methylpiperazin-1-yl)cinnoline-3-carboxamide]
6 | 23 | COc1cc2nnc(C(N)=O)c(Nc3ccc(C)cc3F)c2cc1N1CCN(C(=O)C(C)(C)O)CC1 [Example 69, 4-[(2-Fluoro-4-methylphenyl)amino]-6-[4-(2-hydroxy-2-methylpropanoyl)piperazin-1-yl]-7-methoxycinnoline-3-carboxamide]
7 | 52 | COc1cc2nnc(C(N)=O)c(Nc3ccc(C)cc3F)c2cc1CN1CCOCC1 [Example 73, 4-[(2-Fluoro-4-methylphenyl)amino]-7-methoxy-6-(morpholin-4-ylmethyl)cinnoline-3-carboxamide]
8 | 8 | Cc1ccc(Nc2c(C(N)=O)nnc3cc(N4CCN(CCO)CC4)ccc23)c(F)c1 [Example 57, 4-[(2-Fluoro-4-methylphenyl)amino]-7-[4-(2-hydroxyethyl)piperazin-1-yl]cinnoline-3-carboxamide]
9 | 24 | COc1cc2nnc(C(N)=O)c(Nc3ccc(C)cc3F)c2cc1C1CCN(C(=O)[C@H](C)O)CC1 [Example 70, 4-[(2-Fluoro-4-methylphenyl)amino]-6-{1-[(2S)-2-hydroxypropanoyl]piperidin-4-yl}-7-methoxycinnoline-3-carboxamide]
10 | < 3 | COc1cc2nnc(C(N)=O)c(Nc3ccc(C)cc3F)c2cc1N1CC[C@H](N(C)C)C1 [Example 41, 6-[(3S)-3-(Dimethylamino)pyrrolidin-1-yl]-4-[(2-fluoro-4-methylphenyl)amino]-7-methoxycinnoline-3-carboxamide]
11 | 6 | COc1cc2nnc(C(N)=O)c(Nc3ccc(C)cc3F)c2cc1N1CCN(C[C@@H](O)CO)CC1 [Example 68, 6-{4-[(2R)-2,3-Dihydroxypropyl]piperazin-1-yl}-4-[(2-fluoro-4-methylphenyl)amino]-7-methoxycinnoline-3-carboxamide]
12 | 5 | COc1cc2nnc(C(N)=O)c(Nc3ccc(C)cc3F)c2cc1N1CCN(C[C@H](O)CO)CC1 [Example 67, 6-{4-[(25)-2,3-Dihydroxypropyl]piperazin-1-yl}-4-[(2-fluoro-4-methylphenyl)amino]-7-methoxycinnoline-3-carboxamide]
13 | 12 | COc1cc2nnc(C(N)=O)c(Nc3ccc(C)cc3F)c2cc1N1C[C@@H](C)N(CCO)[C@@H](C)C1 [Example 63, 4-[(2-Fluoro-4-methylphenyl)amino]-6-[(3R,5S)-4-(2-hydroxyethyl)-3,5-dimethylpiperazin-1-yl]-7-methoxycinnoline-3-carboxamide]
14 | 39 | COCCOC1CCN(c2cc3c(Nc4ccc(C)cc4F)c(C(N)=O)nnc3cc2OC)CC1 [Example 60, 4-[(2-Fluoro-4-methylphenyl)amino]-7-methoxy-6-[4-(2-methoxyethoxy)piperidin-1-yl]cinnoline-3-carboxamide]
15 | 11 | Cc1ccc(Nc2c(C(N)=O)nnc3cc(N4CCN(S(C)(=O)=O)CC4)ccc23)c(F)c1 [Example 56, 4-[(2-Fluoro-4-methylphenyl)amino]-7-[4-(methylsulfonyl)piperazin-1-yl]cinnoline-3-carboxamide]

What follows are compounds tested against T1, CSF-1R (assay: Assay 1: CSF-1R In Vitro AlphaScreen Assay). Details: purified His-tagged kinase domain of CSF-1R, 90 μM ATP.
Assay type: biochemical
Method: The phosphorylation of the CSF-1R substrate in the presence and absence of the compound of interest was determined. […] Plates were incubated at 25° C. for 18 hours in the dark. Phosphorylated substrate was detected by an EnVision plate reader (Perkin Elmer) 680 nm excitation, 520-620 nm emission. Data was graphed and IC50s calculated using Excel Fit (Microsoft).

Row | IC50 [nM] | SMILES
16 | < 3 | COc1cc2nnc(C(N)=O)c(Nc3cccc(Cl)c3F)c2cc1OC [Example 3, 4-[(3-Chloro-2-fluorophenyl)amino]-6,7-dimethoxycinnoline-3-carboxamide]
